# Assay results taken from US20240374631A1, “A COMPOSITION FOR IMPROVING GUT MICROBIOTA, BEHAVIOURAL PATTERN, ALPHA-SYNUCLEIN LEVELS, SLEEP PATTERN AND/OR SERUM MELATONIN” (GN Corporation Co Ltd, priority 2021, published 2024).
# System: α-synuclein on the neuroblastoma cell line (SHSY-5Y Tet-On: SCC291)
# Experiment: Expression of α-synuclein on neuroblastoma cell line stimulated with beta-glucan or PMA (glutaraldehyde-fixed cellular ELISA, 3 days)
# Type: cell-based
# Conditions: BG-AF202 50 μg/mL, PMA 500 ng/mL
# Procedure: Neuroblastoma cell line (SHSY-5Y Tet-On: SCC291) (MERCK) was suspended in 10% FCS-DMEM/F12 medium and seeded into 96-well microplates to achieve a cell count of 5×10^4 cells/well. After 24 hours of incubation, the cells were washed with 10% FCS-DMEM/F12 medium and new 10% FCS-DMEM/F12 medium was added.
# Then, β-glucan AFO-202 (50 μg/mL) and PMA (500 ng/mL) (Sigma) were added to the medium, and the cells were cultured for 1 to 3 days. After incubation, the wells were washed three times with PBS and fixed in 0.25% glutaraldehyde-PBS for 1 hour at room temperature. After fixation, the wells were washed three times with PBS-0.05% Tween (PBS-T). After washing the wells with PBS-T, 50 μL of 500-fold diluted α-synuclein polyclonal rabbit antibody (proteintech Co. 10842-1-AP) was added to the wells and incubated at room temperature for 1 h. Then, 2% BSA-PBS-T was added and left for 1 h (to block non-specific reactions).
# After 1 hour, the wells were washed with PBS-T and 50 μL of biotin-labeled anti-rabbit IgG antibody (Cosmo Bio) diluted 5,000-fold was added to the wells and the reaction was carried out for 40 minutes at room temperature. […]
# After that, the absorbance (OD value) was measured with a microplate reader (450 nm) (Tosoh). Data were expressed as […] value (sample OD value−blank OD value). The expression rate was calculated based on the control (None). […]
smiles,measurement,setting,value
CCCCCCCCCCCCCC(=O)O[C@@H]1[C@@H](C)[C@@]2(O)[C@@H](C=C(CO)C[C@]3(O)C(=O)C(C)=C[C@@H]23)[C@@H]2C(C)(C)[C@]12OC(C)=O [PMA],α-synuclein expression (%) vs. None,,50.1%
same,δOD value,None 0.281,0.166
